The text below walks through data of US6506760B1, “Substituted hydrazinyl heteroaromatic inhibitors of thrombin” (Corvas International, Inc., priority 2000, dated 2003).

Common to all, as to assay type: biochemical
Experiment [1] concerns the target human plasmin (Homo sapiens, UniProt P00747). Description: Plasmin chromogenic assay, IC50. To be noted: 30 min incubation. How it is done:
(§1) The ability of compounds of the present invention to act as a selective inhibitor of thrombin activity was assessed by determining the concentration of test-compound which inhibited the activity of this enzyme by 50%, (IC50), and comparing this value to that determined for all or some of the following related serine proteases: recombinant tissue plasminogen activator (rt-PA), plasmin, activated protein C, chymotrypsin, factor Xa and trypsin.
(§2) The buffer used for all assays was HBSA (10 mM HEPES, pH 7.5, 150 mM sodium chloride, 0.1% bovine serum albumin).
(§3) The assay for IC50 determinations was conducted by combining in appropriate wells of a Corning microtiter plate, 50 microliters of HBSA, 50 microliters of the test compound at a specified concentration (covering a broad concentration range) diluted in HBSA (or HBSA alone for V0 (uninhibited velocity) measurement), and 50 microliters of the enzyme diluted in HBSA. Following a 30 minute incubation at ambient temperature, 50 microliters of the substrate at the concentrations specified below were added to the wells, yielding a final total volume of 200 microliters. The initial velocity of chromogenic substrate hydrolysis was measured by the change in absorbance at 405 nm using a Thermo Max® Kinetic Microplate Reader over a 5 minute period in which less than 5% of the added substrate was utilized. The concentration of added inhibitor which caused a 50% decrease in the initial rate of hydrolysis was defined as the IC50 value.
Plasmin catalytic activity was determined using the chromogenic substrate, S-2366 [L-pyroglutamyl-L-prolyl-L-arginine-p-nitroaniline hydrochloride], which was obtained from DiaPharma group. The substrate was made up in deionized water followed by dilution in HBSA prior to the assay in which the final concentration was 300 micromolar (about 2.5-times Km). Purified human plasmin was obtained from Enzyme Research Laboratories, Inc. The enzyme was diluted into HBSA prior to assay in which the final concentration was 1.0 nM.

Experiment [2] has as its target T1, bovine pancreatic trypsin (Bos taurus, UniProt P00760).
T1 construct: bovine pancreatic trypsin was obtained from Worthington Biochemical Corp; purchased Worthington Biochemical Corp. TRL3; host or cells: bovine pancreas
T1 sequence (P00760 24-246): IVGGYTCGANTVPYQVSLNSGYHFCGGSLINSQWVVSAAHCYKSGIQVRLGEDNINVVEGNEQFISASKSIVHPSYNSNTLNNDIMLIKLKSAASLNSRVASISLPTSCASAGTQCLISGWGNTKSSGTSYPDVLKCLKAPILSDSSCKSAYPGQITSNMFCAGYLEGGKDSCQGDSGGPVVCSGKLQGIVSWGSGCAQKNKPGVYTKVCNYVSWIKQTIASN
Description: Trypsin chromogenic assay, IC50. The conditions noted are these: 30 min incubation. How it is done:
as §1, §2, §3
Trypsin catalytic activity was determined using the chromogenic substrate, S-2222 (benzoyl-L-isoleucine-L-glutamic acid-[gamma-methyl ester]-L-arginine-p-nitroanilide), which was obtained from DiaPharma Group. […] Purified (3×-crystallized; TRL3) bovine pancreatic trypsin was obtained from Worthington Biochemical Corp. The enzyme was reconstituted in deionized water and diluted into HBSA prior to assay in which the final concentration was 0.5 nM.

For experiment [3], the target named is human α-thrombin (Homo sapiens, UniProt P00734). The experiment in a line: Thrombin (fIIa) chromogenic assay, IC50.
In experiment [4] the target is T2, Factor Xa (Homo sapiens, UniProt P00742).
T2 construct: purchased Enzyme Research Laboratories, Inc. (South Bend, Ind.)
T2 sequence (P00742 235-488 limits assumed): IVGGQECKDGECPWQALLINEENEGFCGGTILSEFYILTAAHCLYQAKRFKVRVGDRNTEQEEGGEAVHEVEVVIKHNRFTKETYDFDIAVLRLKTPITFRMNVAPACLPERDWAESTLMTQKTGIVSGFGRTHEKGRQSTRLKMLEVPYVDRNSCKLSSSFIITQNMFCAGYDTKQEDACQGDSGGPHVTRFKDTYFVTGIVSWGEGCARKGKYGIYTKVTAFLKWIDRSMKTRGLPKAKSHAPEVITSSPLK
T2 sequence (P00742 41-179 partner limits assumed): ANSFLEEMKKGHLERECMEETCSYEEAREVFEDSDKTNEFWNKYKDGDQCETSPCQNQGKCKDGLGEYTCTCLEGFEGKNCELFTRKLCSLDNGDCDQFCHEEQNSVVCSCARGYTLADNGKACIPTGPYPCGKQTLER
The experiment in a line: Factor Xa chromogenic assay, IC50. The conditions noted are these: 30 min incubation; read-out: fxa IC50 (30 min). How it is done: as §1, §2, §3
Factor Xa catalytic activity was determined using the chromogenic substrate S-2765 (N-benzyloxycarbonyl-D-arginine-L-glycine-L-arginine-p-n itroaniline ), obtained from DiaPharma Group (Franklin, Ohio). All substrates were reconstituted in deionized water prior to use. […] Purified human Factor X was obtained from Enzyme Research Laboratories, Inc. (South Bend, Ind.) and Factor Xa (FXa) was activated and prepared from it as described [Bock, P. E., Craig, P. A., Olson, S. T., and Singh, P. Arch, Biochem. Biophys, 273:375-388 (1989)]. The enzyme was diluted into HBSA prior to assay in which the final concentration was 0.25 nM.

[5] abbreviates: 0 min incubation of enzyme with inhibitor, read-out: fIIa IC50 (0 min).
Setting [6] is: 30 min incubation of enzyme with inhibitor, read-out: fIIa IC50 (30 min).

Like-named read-outs stand apart in the source and are kept apart here.

Usually IC50 stands for the concentration that gives 50% inhibition.

Chain of human plasmin (P00747 581-810 limits assumed): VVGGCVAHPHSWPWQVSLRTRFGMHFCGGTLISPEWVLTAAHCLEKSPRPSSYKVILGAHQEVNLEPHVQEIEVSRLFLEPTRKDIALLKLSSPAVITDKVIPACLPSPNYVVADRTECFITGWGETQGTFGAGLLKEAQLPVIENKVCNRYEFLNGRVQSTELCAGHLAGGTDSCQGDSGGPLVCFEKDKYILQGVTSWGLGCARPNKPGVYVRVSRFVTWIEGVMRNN
Chain of human plasmin (P00747 97-580 partner limits assumed): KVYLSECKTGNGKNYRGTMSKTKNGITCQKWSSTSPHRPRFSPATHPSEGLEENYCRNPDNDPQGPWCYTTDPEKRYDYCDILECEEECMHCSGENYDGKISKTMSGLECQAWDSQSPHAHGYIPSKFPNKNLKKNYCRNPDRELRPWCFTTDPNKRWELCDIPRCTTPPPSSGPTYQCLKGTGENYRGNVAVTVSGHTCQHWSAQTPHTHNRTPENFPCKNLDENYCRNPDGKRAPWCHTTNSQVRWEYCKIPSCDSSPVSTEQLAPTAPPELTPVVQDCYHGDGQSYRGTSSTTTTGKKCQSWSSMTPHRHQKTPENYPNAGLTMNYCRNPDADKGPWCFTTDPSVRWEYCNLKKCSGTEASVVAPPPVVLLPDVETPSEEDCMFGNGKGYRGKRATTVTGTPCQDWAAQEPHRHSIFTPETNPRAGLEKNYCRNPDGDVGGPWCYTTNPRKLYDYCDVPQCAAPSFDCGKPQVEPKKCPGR

Turning to `Cc1nc(N)ccc1CNC(=O)Cn1c(C)cnc(NNC(=O)NCc2ccc3c(c2)OCO3)c1=O` [Example 49, 1-[5-(2-Amino-6-methylpyridyl)methylcarboxamidomethyl]-6-methyl-3-(2-piperonylcarbamylhydrazino)pyrazinone, Hydrotrifluoroacetate], the IC50 is not below 100 µM in experiment [1]; not below 100 µM in experiment [2]; not above 0.1 µM in experiment [3] (setting [5]); not above 0.1 µM in experiment [3] (setting [6]); not below 100 µM in experiment [4].
In the case of `Cc1nc(N)ccc1CNC(=O)Cn1c(C)cnc(NNC(=O)OCC(C)(C)C)c1=O` [Example 31, 1-[5-(2-Amino-6-methylpyridyl)methylcarboxamidomeyhyl-]6-methyl-3-(2-neopentyloxycarbonylhydrazino)pyrazinone, Hydrotrifluoroacetate], the half-inhibitory concentration (IC50) in experiment [1] was not below 100 µM; in experiment [2], 2.5 to 100 µM; in experiment [3] (setting [5]), not above 0.1 µM; in experiment [3] (setting [6]) it was not above 0.1 µM; in experiment [4] it was not below 100 µM.
Regarding `C=CCCOC(=O)NNc1ncc(C)n(CC(=O)NCc2ccc(N)nc2C)c1=O` [Example 28, 1-[5-(2-Amino-6-methylpyridyl)methylcarboxamidomethyl]-3-[2-(3-butenyloxycarbonyl)hydrazino]-6-methylpyrazinone, Hydrotrifluoroacetate], the IC50 in experiment [1] is not below 100 µM; in experiment [2] it was not below 100 µM; in experiment [3] (setting [5]) it was not above 0.1 µM; in experiment [3] (setting [6]), not above 0.1 µM; in experiment [4], 2.5 to 100 µM.
For `COc1ccccc1CNC(=O)NNc1ncc(C)n(CC(=O)NCc2ccc(N)nc2C)c1=O` [Example 48, 1-[5-(2-Amino-6-methylpyridyl)methylcarboxamidomethyl]-3-[2-(2-methoxybenzylcarbamyl)hydrazino]-6-methylpyrazinone, Hydrotrifluoroacetate], the IC50 in experiment [1] is not below 100 µM; in experiment [2] it was not below 100 µM; in experiment [3] (setting [5]), not above 0.1 µM; in experiment [3] (setting [6]) it was not above 0.1 µM; in experiment [4], not below 100 µM.
With `C=CCOC(=O)NNc1ncc(C)n(CC(=O)NCc2ccc(N)nc2C)c1=O` [Example 25, 3-(2-Allyloxycarbonylhydrazino)-1-[5-(2-amino-6-methylpyridyl)methylcarboxamidomethyl]-6-methylpyrazinone, Hydrotrifluoroacetate], the IC50 in experiment [1] is not below 100 µM; in experiment [2] it was not below 100 µM; in experiment [3] (setting [5]), not above 0.1 µM; in experiment [3] (setting [6]), not above 0.1 µM; in experiment [4], not below 100 µM.
With `COc1ccc(S(=O)(=O)NNc2ncc(C)n(CC(=O)NCc3ccc(N)nc3C)c2=O)cc1` [Example 57], the IC50 in experiment [1] is not below 100 µM; in experiment [2], not below 100 µM; in experiment [3] (setting [5]), not above 0.1 µM; in experiment [3] (setting [6]), not above 0.1 µM; in experiment [4] it was 2.5 to 100 µM.
With `C#CCOC(=O)N(CC)Nc1ncc(C)n(CC(=O)NCc2ccc(N)nc2C)c1=O` [Example 58, 1-[5-(2-Amino-6-methylpyridyl)methylcarboxamidomeyhyl-]3-[2-ethyl-2-(propargyloxycarbonyl)hydrazino]-6-methylpyrazinone, Hydrotrifluoroacetate], the IC50 in experiment [1] was not below 100 µM; in experiment [2], not below 100 µM; in experiment [3] (setting [5]), not above 0.1 µM; in experiment [3] (setting [6]), not above 0.1 µM; in experiment [4], not below 100 µM.
Take `C#CCOC(=O)N(C)Nc1ncc(C)n(CC(=O)NCc2ccc(N)nc2C)c1=O` [Example 59, 1-[5-(2-Amino-6-methylpyridyl)methylcarboxamidomethyl]-6-methyl-3-[2-methyl-2-(propargyloxycarbonyl)hydrazino]pyrazinone, Hydrotrifluoroacetate]: the IC50 in experiment [1] is not below 100 µM; in experiment [2], 2.5 to 100 µM; in experiment [3] (setting [5]) it was not above 0.1 µM; in experiment [3] (setting [6]) it was not above 0.1 µM; in experiment [4] it was not below 100 µM.
Take `Cc1nc(N)ccc1CNC(=O)Cn1c(C)cnc(NNC(=O)Cc2ccccc2)c1=O` [Example 12, 1-[5-(2-Amino-6-methylpyridyl)methylcarboxamidomeyhyl-]6-methyl-3-(2-phenylacetylhydrazino)pyrazinone, Hydrotrifluoroacetate]: the IC50 in experiment [1] was 2.5 to 100 µM; in experiment [2], not below 100 µM; in experiment [3] (setting [5]) it was not above 0.1 µM; in experiment [3] (setting [6]), not above 0.1 µM; in experiment [4], not below 100 µM.
Regarding `Cc1nc(N)ccc1CNC(=O)Cn1c(C)cnc(NNS(=O)(=O)c2ccccc2)c1=O` [Example 22, 1-[5-(2-Amino-6-methylpyridyl)methylcarboxamidomethyl]-6-methyl-3-(2-phenylsulfonylhydrazino)pyrazinone, Hydrotrifluoroacetate], the IC50 in experiment [1] was not below 100 µM; in experiment [2], 2.5 to 100 µM; in experiment [3] (setting [5]), not above 0.1 µM; in experiment [3] (setting [6]), not above 0.1 µM; in experiment [4] it was not below 100 µM.
As for `Cc1nc(N)ccc1CNC(=O)Cn1c(C)cnc(NNS(=O)(=O)c2ccccc2F)c1=O` [Example 54, 1-[5-(2-Amino-6-methylpyridyl)methylcarboxamidomethyl]-3-[2-(2-fluorobenzenesulfonyl)hydrazino]-6-methyl pyrazinone, Hydrotrifluoroacetate], the IC50 in experiment [1] is not below 100 µM; in experiment [2], not below 100 µM; in experiment [3] (setting [5]), not above 0.1 µM; in experiment [3] (setting [6]) it was not above 0.1 µM; in experiment [4] it was not below 100 µM.
For `Cc1nc(N)ccc1CNC(=O)Cn1c(C)cnc(NNC(=O)OCc2ccccc2Cl)c1=O` [Example 24, 1-[5-(2-Amino-6-methylpyridyl)methylcarboxamidomethyl]-3-[2-(2-chlorobenzyloxycarbonyl)hydrazino]-6-methylpyrazinone, Hydrotrifluoroacetate], the IC50 in experiment [1] is not below 100 µM; in experiment [2], 2.5 to 100 µM; in experiment [3] (setting [5]) it was not above 0.1 µM; in experiment [3] (setting [6]), not above 0.1 µM; in experiment [4], not below 100 µM.
With `Cc1nc(N)ccc1CNC(=O)Cn1c(C)cnc(NNC(=O)OCc2ccccc2Cl)c1=O` [Example 32, 1-[5-(2-Amino-6-methylpyridyl)methylcarboxamidomethyl]-3-[2-(2-chlorobenzyloxycarbonyl)hydrazino]-6-methylpyrazinone, Hydrotrifluoroacetate], the concentration for half-maximal inhibition (IC50) is 2.5 to 100 µM in experiment [1]; not below 100 µM in experiment [2]; not above 0.1 µM in experiment [3] (setting [5]); not above 0.1 µM in experiment [3] (setting [6]); not below 100 µM in experiment [4].
As to “1-[5-(2-Amino-6-methylpyridyl)methylcarboxamidomethyl]-3-[2-(4-chlorobenzenesulfonyl)hydrazino]-6-methylpyrazinone, Hydrotrifluoroacetate [Example 55]”, the IC50 in experiment [1] is not below 100 µM; in experiment [2], not below 100 µM; in experiment [3] (setting [5]), not above 0.1 µM; in experiment [3] (setting [6]), not above 0.1 µM; in experiment [4], not below 100 µM.
Consider `Cc1nc(N)ccc1CNC(=O)Cn1c(C)cnc(NN(CCc2ccccc2)CCc2ccccc2)c1=O` [Example 60, 1-[5-(2-Amino-6-methylpyridyl)methylcarboxamidomethyl]-6-methyl-3-[2,2-di(2-phenylethyl)hydrazino]pyrazinone, Hydrotrifluoroacetate], for which the IC50 is not below 100 µM in experiment [1]; not below 100 µM in experiment [2]; not above 0.1 µM in experiment [3] (setting [5]); not above 0.1 µM in experiment [3] (setting [6]); 2.5 to 100 µM in experiment [4].
